According to the NIST ThermoML archive (doi:10.1021/je800463k):

Assay: mn = molality of the nth substance listed, in mol/kg
Conditions: 101 kPa, Liquid; for mass density: Pycnometric method; for electrical conductivity: Frequency=0.001 MHz, Alternating current cell with electrodes; for speed of sound: Frequency=2 MHz

O=[N+]([O-])[O-].O=[N+]([O-])[O-].[Mg+2] [magnesium nitrate] + CO
Conditions | electrical conductivity [S/m] | mass density [kg/m3] | speed of sound [m/s] | viscosity [mPa·s]
308.75 K, m1 = 0.4555 | – | 824.82 | – | –
308.75 K, m1 = 1.004 | – | 877.82 | – | –
308.85 K, m1 = 1.492 | – | 927.12 | – | –
309.1 K, m1 = 0.0082 | – | 775.87 | – | –
309.4 K, m1 = 0.1047 | – | 789.92 | – | –
309.75 K, m1 = 0.0545 | – | 782.89 | – | –
309.75 K, m1 = 0.881 | – | 863.28 | – | –
309.9 K, m1 = 0.2776 | – | 806.88 | – | –
309.95 K, m1 = 1.259 | – | 904.15 | – | –
310.1 K, m1 = 0.782 | – | 861.14 | – | –
310.2 K, m1 = 0.0667 | – | 784.14 | – | –
310.3 K, m1 = 1.71 | – | 944.04 | – | –
310.4 K, m1 = 0.4024 | – | 818.47 | – | –
310.45 K, m1 = 0.6276 | – | 841.27 | – | –
310.65 K, m1 = 0.4555 | – | 823.17 | – | –
310.7 K, m1 = 1.004 | – | 876 | – | –
311.55 K, m1 = 1.875 | – | 953.58 | – | –
311.6 K, m1 = 0.0082 | – | 773.44 | – | –
311.7 K, m1 = 0.0667 | – | 782.46 | – | –
311.9 K, m1 = 0.881 | – | 861.58 | – | –
311.9 K, m1 = 1.259 | – | 902.37 | – | –
312 K, m1 = 0.1047 | – | 787.42 | – | –
312 K, m1 = 1.492 | – | 924.32 | – | –
312.1 K, m1 = 0.4024 | – | 816.76 | – | –
312.2 K, m1 = 0.4555 | – | 821.41 | – | –
312.25 K, m1 = 0.6276 | – | 839.48 | – | –
312.3 K, m1 = 0.0545 | – | 780.41 | – | –
312.45 K, m1 = 1.71 | – | 942.18 | – | –
312.5 K, m1 = 0.2776 | – | 804.41 | – | –
312.85 K, m1 = 0.782 | – | 858.54 | – | –
313.15 K, m1 = 0.0082 | 0.1573 | – | 1059.8 | 0.4543
313.15 K, m1 = 0.0545 | 0.4382 | – | 1066.6 | 0.483
313.15 K, m1 = 0.0667 | 0.4799 | – | 1067.2 | 0.4662
313.15 K, m1 = 0.1047 | 0.6326 | – | 1072.3 | 0.5128
313.15 K, m1 = 0.2776 | 1.215 | – | 1090.3 | 0.5885
313.15 K, m1 = 0.4024 | 1.537 | – | 1099.9 | 0.6799
313.15 K, m1 = 0.4555 | 1.625 | – | 1105.5 | 0.7062
313.15 K, m1 = 0.6276 | 1.951 | – | 1123.8 | 0.8707
313.15 K, m1 = 0.782 | 2.183 | – | 1140.7 | 0.9902
313.15 K, m1 = 0.881 | 2.262 | – | 1147.3 | 0.9936
313.15 K, m1 = 0.9116 | 2.287 | – | 1150.2 | 1.038
313.15 K, m1 = 1.004 | 2.39 | – | 1164.5 | 1.124
313.15 K, m1 = 1.259 | 2.502 | – | 1183.5 | 1.536
313.15 K, m1 = 1.492 | 2.545 | – | 1210.2 | 1.837
313.15 K, m1 = 1.71 | 2.587 | – | 1231.4 | 2.169
313.15 K, m1 = 1.875 | 2.567 | – | 1240.4 | 2.45
313.3 K, m1 = 0.0667 | – | 780.84 | – | –
313.65 K, m1 = 1.004 | – | 873.36 | – | –
313.7 K, m1 = 1.875 | – | 951.61 | – | –
313.85 K, m1 = 0.4024 | – | 815.07 | – | –
313.95 K, m1 = 0.0545 | – | 778.79 | – | –
314 K, m1 = 0.0082 | – | 771.07 | – | –
314.25 K, m1 = 1.492 | – | 922.37 | – | –
314.4 K, m1 = 0.1047 | – | 784.98 | – | –
314.6 K, m1 = 1.71 | – | 940.19 | – | –
314.7 K, m1 = 0.881 | – | 858.85 | – | –
314.8 K, m1 = 0.4555 | – | 818.87 | – | –
314.85 K, m1 = 1.259 | – | 899.51 | – | –
314.9 K, m1 = 0.6276 | – | 836.88 | – | –
315.1 K, m1 = 0.2776 | – | 801.88 | – | –
315.45 K, m1 = 0.4024 | – | 813.41 | – | –
315.65 K, m1 = 0.0667 | – | 778.45 | – | –
315.65 K, m1 = 0.782 | – | 855.81 | – | –
315.8 K, m1 = 1.875 | – | 949.71 | – | –
315.95 K, m1 = 0.1047 | – | 783.38 | – | –
316.35 K, m1 = 0.0545 | – | 776.41 | – | –
316.5 K, m1 = 0.4555 | – | 817.2 | – | –
316.6 K, m1 = 0.881 | – | 857.07 | – | –
316.6 K, m1 = 1.004 | – | 870.6 | – | –
316.65 K, m1 = 0.6276 | – | 835.18 | – | –
316.75 K, m1 = 1.259 | – | 897.65 | – | –
317.35 K, m1 = 0.2776 | – | 799.43 | – | –
317.35 K, m1 = 1.492 | – | 919.48 | – | –
317.5 K, m1 = 0.782 | – | 854.04 | – | –
317.8 K, m1 = 1.875 | – | 947.68 | – | –
317.85 K, m1 = 1.71 | – | 937.24 | – | –
318.15 K, m1 = 0.0082 | – | – | 1044.1 | –
318.15 K, m1 = 0.0545 | – | – | 1045.1 | –
318.15 K, m1 = 0.0667 | – | – | 1051.1 | –
318.15 K, m1 = 0.1047 | – | – | 1056.1 | –
318.15 K, m1 = 0.2776 | – | – | 1074.8 | –
318.15 K, m1 = 0.4024 | – | – | 1083.3 | –
318.15 K, m1 = 0.4555 | – | – | 1089.9 | –
318.15 K, m1 = 0.6276 | – | – | 1108 | –
318.15 K, m1 = 0.782 | – | – | 1124.4 | –
318.15 K, m1 = 0.881 | – | – | 1131.9 | –
318.15 K, m1 = 0.9116 | – | – | 1134 | –
318.15 K, m1 = 1.004 | – | – | 1148.2 | –
318.15 K, m1 = 1.259 | – | – | 1167.6 | –
318.15 K, m1 = 1.492 | – | – | 1193.9 | –
318.15 K, m1 = 1.71 | – | – | 1216.4 | –
318.15 K, m1 = 1.875 | – | – | 1225.2 | –
319.3 K, m1 = 0.881 | – | 854.45 | – | –
319.45 K, m1 = 1.004 | – | 867.87 | – | –
319.55 K, m1 = 1.259 | – | 894.9 | – | –
320.2 K, m1 = 1.492 | – | 916.67 | – | –
320.25 K, m1 = 0.782 | – | 851.43 | – | –
320.75 K, m1 = 1.875 | – | 944.75 | – | –
320.9 K, m1 = 1.71 | – | 934.37 | – | –
323.15 K, m1 = 0.0082 | – | – | 1027.3 | –
323.15 K, m1 = 0.0545 | – | – | 1033.4 | –
323.15 K, m1 = 0.0667 | – | – | 1035.4 | –
323.15 K, m1 = 0.1047 | – | – | 1039.7 | –
323.15 K, m1 = 0.2776 | – | – | 1058.3 | –
323.15 K, m1 = 0.4024 | – | – | 1067.5 | –
323.15 K, m1 = 0.4555 | – | – | 1076.2 | –
323.15 K, m1 = 0.6276 | – | – | 1093.5 | –
323.15 K, m1 = 0.782 | – | – | 1108.6 | –
323.15 K, m1 = 0.881 | – | – | 1115.5 | –
323.15 K, m1 = 0.9116 | – | – | 1119.3 | –
323.15 K, m1 = 1.004 | – | – | 1133.8 | –
323.15 K, m1 = 1.259 | – | – | 1151.8 | –
323.15 K, m1 = 1.492 | – | – | 1177.5 | –
323.15 K, m1 = 1.71 | – | – | 1199 | –
323.15 K, m1 = 1.875 | – | – | 1209.5 | –
